From US20100249184A1, “INDUCTION AND/OR MAINTENANCE OF TUMOR DORMANCY BY DISRUPTION OF UROKINASE PLASMINOGEN ACTIVATOR RECEPTOR-INTEGRIN INTERACTION” (MOUNT SINAI SCHOOL OF MEDICINE, priority 2007, published 2010)

System: T-HEp3 cells
Assay: P-ERK/ERK Western blotting after peptide treatment
Assay type: cell-based, human
Description: FIGS. 6A-E show ERK activation and growth in vivo. In FIG. 6A, HEK293 and D-Hep3 cells transfected with uPAR^wt produces stronger activation of ERK than cells transfected with uPAR^S245A or with vector (top and middle panels); HEK293, and D-HEp3 cells, transiently transfected with pcDNA3.1 vector, or with an expression construct for uPAR^wt or uPAR^S245A lysed 48 hrs later and analyzed by Western blotting for phospho-ERK (FIG. 6A, top panels) and ERK 1/2 (FIG. 6A, middle panels) with specific antibodies. The bands were scanned with NIH Image and plotted. The ratio of phospho-ERK to ERK was calculated and expressed as a fraction of the ratio of pcDNA3.1 transfected cells. In FIG. 6A (bottom panels), uPAR^wt and uPAR^S245A expression was determined by Western blotting. […] D-HEp3 cells transfected with vector, or uPAR^wt or uPAR^S245A were detached with EDTA 36 hrs after transfection and 7×10^5 cells in 30 μl PBS were inoculated onto chorioallantoic membranes (“CAMs”) of 10-day old chick embryos. Each sample was inoculated onto 4 CAMs. The CAMs were excised 4 days later and the number of tumor cells was determined as in the Examples. The bars show mean and standard deviation. Paired t-test vector/uPAR^S245A p=0.76, vector/uPAR^wt p=0.0005, uPAR^S245/uPAR^wt p=0.0002. Inset: uPAR expression detected by Western blot with R2 antibody. In FIG. 6C, peptide 240-248, but not peptide 17-24, down regulates P-ERK level. T-HEp3 cells were serum-starved and treated in serum-free medium with 25 μM of peptides 240-248 and 17-24 for 45 min and 3 hrs. The cells were lysed and the lysates were analyzed for P-ERK (FIG. 6C, upper panel) and total ERK (FIG. 6C, lower panel) by Western blotting. FIG. 6D is a graph showing that S245A mutant peptide has no effect on ERK activation. T-HEp3 cells were treated with 5, 20, and 40 μM peptides 240-248 ([…]), 17-24 (▪), and S245A (▾) for 1 hr. The cells were processed as in FIG. 6C, except that the bands were scanned by NIH Image the P-ERK/ERK ratio was calculated. […] Sub-confluent T-ELK:GFP cells grown in 48-well plate and serum-starved overnight were incubated with the uPAR peptides 240-248 at 5 and 25 μM and with 17-24 peptide at 25 μM for 40 hrs at 37° C. in serum-free medium. The cells were detached and analyzed for GFP in FACS Canto using FACSDiva software. The numbers represent GFP-positive cells as percent of total. The dose-response for peptide 240-248 and highest concentration of peptides 17-24 and S245A were repeated two additional times with similar results.
To test the effect of uPAR/integrin inhibiting peptides on ERK activity, T-HEp3 cells transfected with two plasmids that report through GFP level on the state of ERK activation and designated T-ELK (Aguirre-Ghiso et al., Cancer Res. 63:1684-1695 (2003), which is hereby incorporated by reference in its entirety) were plated in 48-well plates, serum-starved overnight, and treated (in duplicates) with 5 and 25 μM of uPAR-derived synthetic peptides (240-248) or 25 μM (17-24) in DMEM for 42 hrs. Untreated cells served as positive control and cells not expressing GFP as negative control. The cells were detached and analyzed for GFP by FACS analysis using FACS Canto (Becton Dickinson, Calif.) and FACSDiva software. Alternatively, T-HEp3 cells, serum-starved overnight were incubated in serum-free medium with 5, 20, and 40 μM of uPAR-derived synthetic peptide 240-248, 17-24, or S245A for 1 hr or with 25 μM peptide 240-248 and 17-24 for 10 min, 45 min, and 3 hrs at 37° C. The cells were lysed in RIPA buffer and processed as described above. Concentration dependence of P-ERK inhibition was analyzed by scanning P-ERK and ERK bands with NIH-Image and expressing their ratios as % of the ratio in untreated control (T-HEp3) cells.

[1] = 25 μM peptide, 45 and 180 min, serum-starved
[2] = 25 μM peptide, 10 min, serum-starved

Row | Substance | P-ERK level [1] | P-ERK level [2] | P-ERK level (5, 20 and 40 μM peptide, 1 hr)
1 | peptide 17-24: synthetic uPAR-derived peptide, domain I amino acid 17-24: CALGQDLC (SEQ ID NO:5); negative control [reference compound] | minimal or no effect | only a minor effect | minor and inconsistent effects
2 | peptide 240-248: synthetic uPAR-derived peptide, domain III residues 240-248: GCATASMCQ (SEQ ID NO:9) | strong reduction in P-ERK level | only a minor effect | reduced P-ERK level in a dose-dependent fashion
